Assay results taken from publication PMC4559561, “Radioiodinated PARP1 tracers for glioblastoma imaging” (EJNMMI Research, 2015).
Several values for one entry are separate records, joined by “and”; a condition that tells them apart may be missing. Equal values may be shown once.

Tests used:
[1] = Plasma protein fraction by rapid equilibrium dialysis in mouse serum; format: in vitro ADME; conditions: 10 μM compound in mouse serum vs PBS, 37 °C, read-out: Plasma Free Fraction
Description: The plasma protein fraction was determined using the Rapid Equilibrium Dialysis Device System (Life Technologies, Grand Island, NY) according to the manufacturer’s protocol. Membrane dialysis was performed with 10 μM of compound in mouse serum (500 μL) on one side of the membrane and PBS (750 μL) on the other side. The system was sealed with parafilm and incubated for 4 h at 37 °C on an orbital shaker set to 250 rpm. Thereafter, 400 μL of solution was taken from both sides, and samples were treated twice with an equal amount of AcN and vortexed to remove protein before HPLC analysis. After injection (100 μL), the I-PARPi peaks from each sample were then integrated and the protein bound fraction was determined. The data was analyzed using Prism 6.0c.

[2] = test system: U87 MG subcutaneous tumors; assay: In vivo blocking study: PARPi-FL uptake in tumors, ex vivo epifluorescence imaging; set-up: species or system mouse
Source text: One hour post injection, the mice were sacrificed and the tumors were resected and imaged with the IVIS spectrum fluorescence imaging system (PerkinElmer, Waltham, MA) using Living Image 4.4 software. The tumors were also imaged microscopically with the 5Live fluorescent confocal microscope using the 488 nm laser for PARPi-FL excitation.

[3] = biological target: T1, PARP1 high specific activity (HSA) enzyme (Homo sapiens, UniProt P09874); assay: PARP-1 IC50 determination, commercial colorimetric assay (Trevigen); format: biochemical; conditions: 0.5 U PARP1 HSA enzyme, 10 min, histone-coated plates, triplicate
T1 construct: purchased Trevigen, Gaithersburg, MD
T1 sequence (P09874 whole entry): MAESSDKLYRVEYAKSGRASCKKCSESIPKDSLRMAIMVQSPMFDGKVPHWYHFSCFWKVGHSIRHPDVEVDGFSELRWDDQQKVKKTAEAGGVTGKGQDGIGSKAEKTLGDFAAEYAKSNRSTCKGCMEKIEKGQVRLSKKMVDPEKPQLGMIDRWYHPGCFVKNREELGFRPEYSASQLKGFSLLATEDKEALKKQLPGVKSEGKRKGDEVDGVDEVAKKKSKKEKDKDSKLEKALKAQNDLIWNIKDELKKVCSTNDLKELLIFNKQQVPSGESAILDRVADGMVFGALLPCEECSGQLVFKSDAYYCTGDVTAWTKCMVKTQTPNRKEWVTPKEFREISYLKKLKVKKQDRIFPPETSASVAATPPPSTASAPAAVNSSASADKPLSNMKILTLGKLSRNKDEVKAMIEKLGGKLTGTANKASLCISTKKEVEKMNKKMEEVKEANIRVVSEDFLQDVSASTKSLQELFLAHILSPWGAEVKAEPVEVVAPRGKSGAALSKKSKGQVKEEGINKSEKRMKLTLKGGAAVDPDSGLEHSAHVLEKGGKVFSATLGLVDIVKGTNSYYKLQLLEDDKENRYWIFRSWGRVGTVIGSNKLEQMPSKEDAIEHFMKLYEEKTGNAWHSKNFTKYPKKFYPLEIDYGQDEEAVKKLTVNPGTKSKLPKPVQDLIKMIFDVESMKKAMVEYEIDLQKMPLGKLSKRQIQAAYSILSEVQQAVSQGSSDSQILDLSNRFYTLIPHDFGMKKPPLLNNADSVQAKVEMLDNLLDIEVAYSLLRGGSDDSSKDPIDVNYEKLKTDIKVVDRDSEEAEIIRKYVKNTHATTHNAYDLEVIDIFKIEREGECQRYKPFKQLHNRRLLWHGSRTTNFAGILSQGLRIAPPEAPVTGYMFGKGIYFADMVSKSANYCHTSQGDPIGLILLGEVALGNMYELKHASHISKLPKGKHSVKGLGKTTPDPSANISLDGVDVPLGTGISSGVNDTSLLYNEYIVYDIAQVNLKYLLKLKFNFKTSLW
Description: A commercially available colorimetric assay (Trevigen, Gaithersburg, MD) was used to measure PARP-1 activity in vitro in the presence of varying concentrations of the different iodo-[…]. […] All experiments were carried out in triplicate. […] All reaction mixtures were adjusted to a final volume of 50 μl, and a final concentration of 1 % DMSO in assay buffer. The remainder of the assay was performed according to the manufacturer's instructions. PARP1 activity was measured by absorbance at 450 nm in each well using a SpectraMax M5 spectrophotometer with SoftMax Pro software (Molecular Devices, Sunnyvale, CA).

[4] = Chemical hydrophobicity index (CHI) by reverse phase HPLC, Log P derived from CHI; format: physicochemical; conditions: for CHI (chromatographic hydrophobicity index): from HPLC retention time against standards
Description: Chemical hydrophobicity indices (CHIs) were measured using procedures developed previously. Briefly, reverse phase HPLC was used to measure the retention times of a set of standards with known CHI. A standard curve was then created to calculate the CHIs of all iodo-PARPi based on the HPLC retention time.

U87 MG cells = assay: In vitro blocking study: competitive inhibition of PARPi-FL uptake; format: cell-based, human; conditions: 20 min
Description: U87 MG cells were seeded into a 96-well plate in a concentration of 1 × 10^4 cells per well. After 24 h, the cells were incubated with either the fluorescent PARP1 inhibitor PARPi-FL (250 nM) alone or with one of the iodo-PARPi inhibitors at a 100-fold higher concentration (25 μM) for 20 min. […] All incubation solutions also included Hoechst 33342 nuclear stain (Sigma-Aldrich, St. Louis, MO). The cells were washed twice with media and once with PBS for 5 min each and imaged on an LSM 5Live confocal microscope (Zeiss, Oberkochen, Germany). All wells were imaged with the DAPI filter for the Hoechst staining and the FITC filter for the PARPi-FL staining. The DAPI and FITC channels were co-registered, and the green fluorescence in the location of the Hoechst staining was quantified for each image. The percent reduction in PARPi-FL uptake was calculated based on the level of fluorescence intensity seen in each image and normalized to the cells receiving no iodo-PARPi inhibitor. Experiments were performed in triplicate.

[5] = In vitro whole blood stability; format: in vitro ADME; conditions: mouse blood, 37 °C, radio-HPLC
Description: The in vitro stability was assessed by incubating 6 μCi [^131I]-PARPi in mouse blood for 0 to 60 min at 37 °C. At baseline, 15, 30, and 60 min, the samples were immediately placed on ice and mixed 1:1 with a solution of AcN/DMSO (250 μL) and then vigorously vortexed for 30 s to precipitate out serum protein. The sample was centrifuged at 3000 RCF for 3 min at 4 °C, and the supernatant was collected. This procedure was repeated three times, and the combined supernatants were analyzed by HPLC equipped with radioactive detector (Shimadzu, Kyoto, Japan), collecting samples every 30 s. Radioactivity of each fraction was measured on a Wizard 2470 Automatic Gamma Counter (Perkin Elmer, Waltham, MA), and the blood stability was analyzed using Prism 6.0c (GraphPad Software, La Jolla, CA).

[6] = Blood half-life by serial blood sampling; format: in vivo, mouse; conditions: healthy athymic nude mice, 50 μCi i.v.
Description: Blood half-life was determined by measuring the activity in serial blood samplings. Specifically, healthy female nude mice (8–10 weeks old, 20–25 g in weight, n = 3) were injected via the tail vein with 50 μCi [^131I]-I2-PARPi in 200 μL of solution PBS/PEG300 (10:1). The blood was sampled from the saphenous vein at 5, 15, 30, 60, 120, and 240 min post injection. The blood was weighed and radioactivity was measured on a Wizard 2470 Automatic Gamma Counter (Perkin Elmer, Waltham, MA). Measurements in counts per minute were calculated as the mean %ID/g. The blood half-life was calculated using Prism 6.0c (GraphPad Software, La Jolla, CA).

[7] = test system: U87 MG subcutaneous xenografts; assay: Biodistribution in U87 MG xenograft mice; format: in vivo, mouse; conditions: U87 MG tumor-bearing mice, 2 h post intravenous injection
Description: (§1) Biodistribution experiments were conducted on female nude mice (8–10 weeks old and 20–25 g in weight, n = 21) bearing U87 MG or U251 MG subcutaneous xenografts. The radiolabeled small molecule preparation ([…] of [^131I]-I2-PARPi in 200 μL of a solution 90 % PBS 10 % PEG300) was administrated via the lateral tail vein. To determine the optimal specific activity to achieve the highest tumor to organ ratio, various specific activities were tested (5, 50, and 250 mCi/μmol) in mice bearing U87 MG tumors. The compound was allowed to circulate for 2 h post injection at which time the mice were sacrificed and organs were harvested (n = 3). After determining the optimal specific activity, the optimal time for imaging was determined by testing the drug distribution in nude mice bearing U87 MG tumors at different time points. The drug was allowed to circulate for various times (1, 2, and 6 h), after which the mice were sacrificed (n = 3). The radioactive content in the tissue of interest (blood, tumor, muscle, bone, liver, spleen, kidney, heart, lung, pancreas, brain, skin, small intestine, large intestine, stomach, tail, thyroid, and feces) was measured on a Wizard 2470 Automatic Gamma Counter and the tissue-associated activity was calculated as the mean %ID/g.

[8] = test system: U251 MG subcutaneous xenografts; assay: Biodistribution in U251 MG xenograft mice; format: in vivo, mouse; conditions: 2 h after tracer injection
Description: as §1

Compound: O=C(c1cccc(I)c1)N1CCN(C(=O)c2cc(Cc3n[nH]c(=O)c4ccccc34)ccc2F)CC1 [I1-PARPi, 4-(4-fluoro-3-(4-(3-iodobenzoyl)piperazine-1-carbonyl)benzyl)phthalazin-1(2H)-one]
- fraction unbound at 4 h, 10 μM [1]: 0.096 ± 0.015

Compound: O=C(c1ccc(I)cc1)N1CCN(C(=O)c2cc(Cc3n[nH]c(=O)c4ccccc34)ccc2F)CC1 [I2-PARPi, 4-(4-fluoro-3-(4-(4-iodobenzoyl)piperazine-1-carbonyl)benzyl)phthalazin-1(2H)-one]
- fraction unbound at 4 h, 10 μM [1]: 0.115 ± 0.001
- reduction of PARPi-FL tumor fluorescence in vivo ([2]; I2-PARPi 125 mg/kg 30 min before PARPi-FL 2.5 mg/kg, tumors resected 1 h post injection, vs PARPi-FL alone): 78 ± 4%

Compound: O=C(Cc1cccc(I)c1)N1CCN(C(=O)c2cc(Cc3n[nH]c(=O)c4ccccc34)ccc2F)CC1 [I3-PARPi, 4-(4-fluoro-3-(4-(2-(3-iodophenyl)acetyl)piperazine-1-carbonyl)benzyl)phthalazin-1(2H)-one]
- IC50 [3]: 0.034 ± 0.003 µM
- CHI (chromatographic hydrophobicity index) [4]: 66.7
- fraction unbound at 4 h, 10 μM [1]: 0.07 ± 0.001

Compound: O=C(Cc1ccc(I)cc1)N1CCN(C(=O)c2cc(Cc3n[nH]c(=O)c4ccccc34)ccc2F)CC1 [I4-PARPi, 4-(4-fluoro-3-(4-(2-(4-iodophenyl)acetyl)piperazine-1-carbonyl)benzyl)phthalazin-1(2H)-one]
- IC50 [3]: 0.074 ± 0.005 µM
- CHI (chromatographic hydrophobicity index) [4]: 66.7
- fraction unbound at 4 h, 10 μM [1]: 0.05 ± 0.003

Compound: O=C(CCc1cccc(I)c1)N1CCN(C(=O)c2cc(Cc3n[nH]c(=O)c4ccccc34)ccc2F)CC1 [I5-PARPi, 4-(4-fluoro-3-(4-(3-(3-iodophenyl)propanoyl)piperazine-1-carbonyl)benzyl)phthalazin-1(2H)-one]
- IC50 [3]: 0.107 ± 0.004 µM
- CHI (chromatographic hydrophobicity index) [4]: 71.6
- fraction unbound at 4 h, 10 μM [1]: 0.078 ± 0.014

Compound: O=C(CCc1ccc(I)cc1)N1CCN(C(=O)c2cc(Cc3n[nH]c(=O)c4ccccc34)ccc2F)CC1 [I6-PARPi, 4-(4-fluoro-3-(4-(3-(4-iodophenyl)propanoyl)piperazine-1-carbonyl)benzyl) phthalazin-1(2H)-one]
- IC50 [3]: 0.047 ± 0.005 µM
- CHI (chromatographic hydrophobicity index) [4]: 71.6
- fraction unbound at 4 h, 10 μM [1]: 0.047 ± 0.005

Compound: O=C(c1cc(Cc2n[nH]c(=O)c3ccccc23)ccc1F)N1CCN(C(=O)C2CC2)CC1 [Olaparib]
- logPCHI ([4]; derived from CHI by equation): 0.8
- reduction of PARPi-FL uptake (fluorescence signal) (U87 MG cells; 25 µM): 73 ± 11%
- reduction of PARPi-FL uptake (fluorescence signal) (U87 MG cells; PARPi-FL 250 nM, inhibitor 25 μM (100-fold), U87 MG cells): 73 ± 10%

Compound: Cc1cc(C)n2c1C=C1C=CC(CCC(=O)N3CCN(C(=O)c4cc(Cc5n[nH]c(=O)c6ccccc56)ccc4F)CC3)=[N+]1[B-]2(F)F [PARPi-FL, reference compound]
- tumor fluorescence, average radiant efficiency ([2]; PARPi-FL 2.5 mg/kg alone): 2.03 × 10^8 ± 1.84 × 10^7

Compound: O=C(c1ccc([131I])cc1)N1CCN(C(=O)c2cc(Cc3n[nH]c(=O)c4ccccc34)ccc2F)CC1 [[^131I]-I2-PARPi]
- in vitro blood stability [5]: stability of the drug over the course of 120 min
- alpha blood half-life [6]: 14.3 min
- beta blood half-life [6]: 94.6 min
- share of alpha phase [6]: 96.25%
- share of beta phase [6]: 3.75%
- weighted blood half-life t1/2(weighted) [6]: 17.1 min
- uptake in brain [7]: 0.007 ± 0.002 %ID/g
- uptake in muscle [7]: 0.04 ± 0.02 %ID/g
- uptake in tumor [7]: 0.50 ± 0.08 %ID/g
- uptake in brain [8]: 0.01 ± 0.00 %ID/g and 0.011 ± 0.003 %ID/g
- uptake in liver [8]: 2.35 ± 0.57 %ID/g and 2.4 ± 0.6 %ID/g
- uptake in muscle [8]: 0.03 ± 0.01 %ID/g and 0.033 ± 0.012 %ID/g
- uptake in thyroid [8]: 0.24 ± 0.06 %ID/g
- uptake in tumor [8]: 0.43 ± 0.06 %ID/g
